Measurements: patent US10568869B2, “Methods for diagnosing and treating prostate cancer” (Cornell University, priority 2012, dated 2020)

Assays:
[1] = tested on: LNCaP cells; assay: FACS-based cell cycle analysis; parameters: species or system human; conditions: for effect on distribution of the cell population within the cell cycle: 24 hours, H-89 3 μmol/L, RpcAMP 100 μmol/L
Excerpt: (§1) Treatment conditions were similar to those described for FIGS. 4A-4D. All Western blot data are representative of three to five independent experiments with similar results.
(§2) FIGS. 5A-5E are graphs and images which illustrate experimental data depicting that sAC controls proliferation and the cell cycle in a PKA-independent and EPAC-dependent manner. FIGS. 5A-5C are graphs depicting statistical analyses of cell number per dish (FIG. 5A), LDH activity in the cell culture medium (relative units (r.u.)) (FIG. 5B), and G2 phase populations (FIG. 5C). Treatments (all 24 hours) were as follows: […], 100 mol/liter 8-pCPT-cAMP (8-pCPT), 100 mol/liter N6-benzoyl-cAMP (6-Bnz), 3 mol/liter H-89, or 100 mol/liter (Rp)-cAMP-S(RpcAMP). […] FIGS. 5D and 5E are images depicting Western blot analysis of the active form of Rap1 (Rap1-GTP) and phosphorylated forms of B-Raf performed with LNCaP cell lysates. Treatment conditions were similar to those described for FIGS. 5A-5C. Treatment was performed for 18 hours. All Western blot data are representative of four to six independent experiments with similar results.
To understand the mechanisms responsible for the anti-proliferative effect of sAC inhibition, cell cycle analysis was performed using FACS-based cell cycle analysis. Specifically, LNCaP cells were fixed with 70% alcohol, stained with propidium iodide, and treated with RNase (BD Biosciences, San Jose, Calif.). DNA content was analyzed using a FACSCALIBUR™ flow cytometer (BD Biosciences, San Jose, Calif.) and FLOWJO™ software.

[2] = tested on: PC3 and LNCaP cells; assay: Cell growth and death analysis after 48 hours KH7 (LDH release, subG1, caspase-3 cleavage); format: cell-based, human; conditions: 20 μmol/L
Excerpt: (§3) The androgen-sensitive LNCaP (ATCC-Nr. CRL-1740D) human prostate carcinoma cell line, the androgen-insensitive PC3 (ATCC-Nr. CRL-1435D) human prostate carcinoma cell line, and neuroblastoma cell line SH-SY5Y (ATCC-Nr. CRL-2266) were purchased from the American Type Culture Collection, and human normal prostate epithelial cell line PNT2 was purchased from Sigma-Aldrich (Cat. Nr. 95012613). Cells were expanded and frozen in aliquots within four weeks of purchase. Cells were thawed and cultured for no more than three further passages. PNT2 cells were cultured in medium RPMI1640 supplemented with 10% fetal calf serum, glutamine and antibiotics. All other cells were cultured in Dulbecco's modified Eagle's medium that was supplemented with 5% fetal calf serum, glutamine, and antibiotics. The cells (1.5×10^5) were seeded in culture medium with 2% fetal calf serum 24 hours prior to each experiment.
Treatment with KH7 reduced the intracellular cAMP content and suppressed cell proliferation in a dose-dependent manner in both cell lines with a maximal effect at 20 μmol/L, as shown in FIG. 2.

[3] = tested on: LNCaP cells; assay: Western blot of proteins controlling cell cycle progression (cyclins, CDK1); conditions: sAC inhibition
Experimental: Production of sAC protein in the LNCaP and PC3 prostate carcinoma cell lines was analyzed by Western blot. […] Equal amounts of total proteins were separated on SDS-polyacrylamide gels and transferred to a nitrocellulose membrane. […] After incubation with peroxidase-linked and horseradish peroxidase-labeled secondary antibodies, specific bands were visualized by chemiluminescence using an ECL Plus kit.
To investigate how sAC controls the G2/M transition, the expression of various cyclins and CDK1 was examined via Western blot as described above using the following primary antibodies: CDK1, phospho-CDK1, cyclin B1, cyclin D1, cyclin D3, and cyclin E2.

[4] = tested on: PC3 cells; assay: Cell proliferation (cell number per dish); format: cell-based, human; conditions: PC3, 24 hours, dose-dependent
Experimental: (§4) FIG. 2 is a graph which illustrates experimental data depicting the effects of the sAC inhibitor KH7 on prostate cancer cell proliferation. Statistical analyses are presented for cellular cAMP content and cell number per dish (starting density: 150,000 cells/dish) 24 hours after KH7 treatment. Values are the mean±SEM (n=5-8). *p<0.05 vs. 0 μmol/L KH7.
as §3, with “experiment. […]” for “experiment.”

[5] = tested on: LNCaP cells; assay: Western blot of Rap1-GTP, Rap1, phospho-B-Raf and B-Raf (EPAC activity); format: cell-based, human
Experimental: as §2
Production of sAC protein in the LNCaP and PC3 prostate carcinoma cell lines was analyzed by Western blot. In particular, cells were lysed in Laemmli buffer containing 2% SDS, 10% glycerol, 5% 2-mercaptoethanol, 0.002% bromphenol blue, and 0.0625 mol/liter Tris-HCl. Equal amounts of total proteins were separated on SDS-polyacrylamide gels and transferred to a nitrocellulose membrane. The following primary antibodies were used: sAC (clones R21 and R40; provided by Dr. J. Buck) and actin (Millipore, Billerica, Mass.). After incubation with peroxidase-linked and horseradish peroxidase-labeled secondary antibodies, specific bands were visualized by chemiluminescence using an ECL Plus kit. Equivalent sample loading was confirmed by stripping the membranes with RESTORE™ Western blot stripping buffer (Thermo Fisher Scientific, Rockford, Ill.), followed by treatment with anti-actin antibody.
To test the role of EPAC in proliferation control, the effects of inhibition of sAC on EPAC activity in LNCaP cells was examined.

[6] = tested on: LNCaP cells; assay: Caspase-3 cleavage (Western blot); format: cell-based, human
Experimental: (§5) FIG. 3A is an image depicting data from Western blot analysis of lysates of LNCaP cells after treatment with sAC-specific or scrambled siRNA for 72 hours (left panel) or after treatment with sAC-specific or scrambled shRNA for 72 hours (right panel). FIGS. 3B-D are graphs and images which illustrate experimental data depicting the effects of siRNA or shRNA transfection on cell proliferation (FIG. 3B), LDH activity in the cell culture medium (relative units (r.u.)) (FIG. 3C), and cleavage of caspase-3 (FIG. 3D). […] The Western blot data are representative of five independent experiments with similar results.
as §1
Production of sAC protein in the LNCaP and PC3 prostate carcinoma cell lines was analyzed by Western blot. In particular, cells were lysed in Laemmli buffer containing 2% SDS, 10% glycerol, 5% 2-mercaptoethanol, 0.002% bromphenol blue, and 0.0625 mol/liter Tris-HCl. Equal amounts of total proteins were separated on SDS-polyacrylamide gels and transferred to a nitrocellulose membrane. The following primary antibodies were used: sAC (clones R21 and R40; provided by Dr. J. Buck) and actin (Millipore, Billerica, Mass.). […]

[7] = tested on: tmAC; conditions: up to 100 μmol/L; cited from earlier work
[8] = tested on: PC3 cells; assay: Cellular cAMP content after KH7 treatment; format: cell-based, human; conditions: PC3, 24 hours, dose-dependent
Experimental: as §4
as §3, with “experiment. […]” for “experiment.”

[9] = tested on: LNCaP cells; assay: Cellular cAMP content after KH7 treatment; format: cell-based, human; conditions: 24 hours, dose-dependent
Experimental: as §4
as §3, with “experiment. […]” for “experiment.”

[10] = tested on: LNCaP cells; assay: Cell proliferation (cell number per dish); format: cell-based, human; conditions: for effect on proliferation: LNCaP control cells, H-89 3 μmol/L, RpcAMP 100 μmol/L; for effect on proliferation in cells treated with the sAC inhibitor KH7: co-treatment with KH7, 24 hours
Experimental: as §4, §5, §2, §3
To further substantiate the role of sAC in cell growth and death, the sAC gene expression/sAC protein production was suppressed in LNCaP cells. Two different methods of sAC knockdown, lipofectamine-based transfection with sAC-specific siRNA or adenoviral transfection with shRNA, were used to further rule out the possibility of KH7 off-target effects. For lipofectamine-based siRNA transfection, LNCaP cells were treated with siRNA duplexes that consisted of four different predesigned sequences targeting the human sAC mRNA sequence (GenBank Accession No. NM_001167749; Dharmacon, Lafayette, Colo.; catalogue no. L-006353-00,). In the control group, cells were treated with scrambled non-targeting siRNA (Dharmacon, Lafayette, Colo.; catalogue no. D-001810-10). Cells were transfected following the manufacturer's instructions. Briefly, cells were seeded 1 day before transfection in Dulbecco's modified Eagle's medium that was supplemented with 2% fetal calf serum without antibiotics.

[11] = tested on: soluble guanylyl cyclase; conditions: up to 100 μmol/L; cited from earlier work
[12] = tested on: LNCaP cells; assay: LDH activity in the cell culture medium; format: cell-based, human; conditions: for effect on cytotoxicity (LDH activity): 24 hours, H-89 3 μmol/L, RpcAMP 100 μmol/L
Experimental: as §5, §2

[13] = co-treatment with KH7, 24 hours

In the case of `CC(Sc1nc2ccccc2[nH]1)C(=O)N/N=C/c1cc(Br)ccc1O` (stereo not drawn) [KH7, (E)-2-(1H-benzo[d]imidazol-2-ylthio)-N′-(5-bromo-2-hydroxybenzylidene)propanehydrazide], the “effect on cell cycle phases” value ([1]; 24 hours, or siRNA transfection) is reported as “cell cycle arrest at the G2 phase”, the “time at which percentage of cells in G2-phase reached maximal value” ([1]; time course over 48 hours) is reported as 24 h and the “time at which percentage of cells in G2-phase started to rise” value ([1]; time course over 48 hours) is reported as 12 h. The “apoptosis (subG1 population and cleavage of caspase-3)” value [2] was “apoptosis”, the “expression of cyclin D1” value [3] was “not altered” and the “expression of cyclin D3” value [3] was “not altered”. The “expression of cyclin E2” value [3] was “not altered”, the “suppression of cell proliferation, concentration of maximal effect” value [4] was 20 µmol/L and the “Rap1-GTP (active form of Rap1) expression” value ([5]; 18 hours) was “significantly depleted”. For the same molecule, the “phosphorylation of B-Raf” value ([5]; 18 hours) was “suppressed”, the “expression of Rap1, optical band density as ratio to actin band density” value ([5]; KH7 treatment, n=6, 0.79+0.01 in control) was 0.81+0.07 and the “expression of B-Raf, optical band density as ratio to actin band density” value ([5]; KH7 treatment, n=8, 1.13+0.06 in control) was 1.02+0.04. For the same molecule, the “time at which cleavage of caspase-3 first appeared” value ([6]; time course over 48 hours) was 24 h, the “effect on tmAC” value [7] was “no effect” and the “reduction of intracellular cAMP content, concentration of maximal effect” value [8] was 20 µmol/L. The “reduction of intracellular cAMP content, concentration of maximal effect” value [9] was 20 µmol/L, the “suppression of cell proliferation, concentration of maximal effect” value ([10]; LNCaP, 24 hours, dose-dependent) was 20 µmol/L and the “effect on soluble guanylyl cyclase” value [11] was “no effect”.

In the case of `Nc1ncnc2c1ncn2[C@@H]1O[C@@H]2CO[P@@](O)(=S)O[C@H]2[C@H]1O` [RpcAMP, (Rp)-cAMP-S], the “effect on distribution of the cell population within the cell cycle” value [1] is reported as “no effect”, the “effect on cytotoxicity (LDH activity)” value [12] is reported as “no effect” and the effect on proliferation ([10]; 24 hours) is reported as “no effect”.

With `O=S(=O)(NCCNC/C=C/c1ccc(Br)cc1)c1cccc2cnccc12` [H-89] the “effect on distribution of the cell population within the cell cycle” value [1] was “no effect”, the “effect on cytotoxicity (LDH activity)” value [12] was “no effect” and the effect on proliferation ([10]; 24 hours) was “no effect”.

With `O=C(Nc1ncnc2c1ncn2[C@@H]1O[C@@H]2COP(=O)(O)O[C@H]2[C@H]1O)c1ccccc1` [N^6-benzoyl-cAMP] the effect on proliferation ([10]; 24 hours) was “no effect” and the “effect on proliferation in cells treated with the sAC inhibitor KH7” value ([10]; LNCaP) was “no effect”.

For `Nc1ncnc2c1nc(Sc1ccc(Cl)cc1)n2[C@@H]1O[C@@H]2COP(=O)(O)O[C@H]2[C@H]1O` [8-pCPT, 8-pCPT-cAMP], the “effect on cell cycle block induced by sAC inhibition” value [1, 13] was “prevented”, the “effect on LDH release induced by sAC inhibition” value [12, 13] was “prevented” and the “effect on KH7-induced change of Rap1-GTP expression” value ([5]; co-treatment with KH7) was “reversed”. For the same molecule, the “effect on proliferation in cells treated with the sAC inhibitor KH7” value ([10]; LNCaP) was “prevented”.

B1: shRNA: adenovirus-driven anti-sAC-directed shRNA, hairpin construct of SEQ ID NO: 10 targeting rat sAC mRNA (nucleic acid)
chain: GGGGTACCAAAAAAGTGGAAAGTGGAACGAAAGCATCTCTTGAATGCTTTCGTTCCACTTTCCACAAACAAGGCTTTTCTCCAAG
In the case of B1, the “LDH release after sAC knockdown” value ([12]; 72 hours) is reported as “induced LDH release”, the “caspase-3 cleavage after sAC knockdown” value ([6]; 72 hours) is reported as “led to caspase-3 cleavage” and the “cell numbers after sAC knockdown” value ([10]; LNCaP, 72 hours, reduction from 6.37×10^5) is reported as 3.56×10^5.
